Measurements taken from US20210227843A1, “A TEMPERING COMPOSITION FOR TEMPERING GRAIN AND CONTROLLING PATHOGENS IN AND/OR ON SAID GRAIN, AN OXIDIZING COMPOSITION FOR PREPARING SAID TEMPERING COMPOSITION, A USE OF SAID TEMPERING COMPOSITION AND A METHOD OF USE OF SAID TEMPERING COMPOSITION” (AGRI-NEO INC., priority 2017, published 2021).

Assay: Flour functionality, sensory and physical characteristics after tempering wheat in an organic flour mill (Example 1)
Details: 2 L per ton of wheat (citric acid 2 Kg); 16 h hold

| SMILES | MIXOLAB Stability |
| --- | --- |
| O=C(O)CC(O)(CC(=O)O)C(=O)O [Citric acid] | 13.5 min |
| CC(O)C(=O)O (centres unmarked) [Lactic acid] | 17.5 min |
